Measurements reported in patent US11925623B2 (priority 2020, dated 2024).
“Also recorded” adds a separate entry of the source.

What was measured:
H2S = assay: Zn-agar entrapment H2S measurement in cell culture; format: cell-based
Description: To sterilized agar solution (1% w/v) was added 45 mM Zn Acetate and 4.5 mM NaOH (both prepared in sterile water). The solution was then applied to the non-adherent surface of the empty flasks and allowed to solidify. Cells were seeded in T-25 flask at 1 million cells/flask overnight. Cells were treated with sulfanegen at 0-500 μM concentrations and incubated for 6 hours. After the incubation period, the media was removed and 2 ml N,N-dimethyl-p-phenylenediamine chloride was added to the agar layer and incubated at RT for 10 mins. This was followed by addition of 400 μL of ferrous chloride and incubation for 20 minutes. The solution was then aliquoted into 96-well plate and absorbance was measured at 670 nm. The release of H2S was measured using a standard curve generated with NaSH under similar experimental conditions (incubation with NaSH was done for 1 hr).

TNFα = TNFα ELISA of brain tissue, i.c.v Aβ1-42 mice; format: in vivo, C57/BL6 mice; settings: 50 and 100 mg/kg i.p.; no difference between doses
Description: (§1) Eight-week old Wild type C57/BL6 mice were treated i.p. with sulfanegen at 50 and 100 mg/kg dose during the entire duration of experiment. The mice were injected with intracerebroventricular (i.c.v) Aβ1-42 on day 3 after initiation of drug treatment (1 nmol/mouse). Behavioral test (T-maze) was conducted 6 days after Aβ1-42 injection, which was followed by euthanization on day 8. Biochemical analysis of the collected brain tissues was conducted using ELISA method for quantitation of Aβ1-42, and immunohistochemical analysis for GFAP (inflammatory marker). The brain tissues were also analyzed for oxidative stress markers (GSH assay, see Example 5; and protein carbonyls, see Example 6). • Groups: • Saline control N=12, (N=5 study 2; N=7 study 3) • Abeta control N=15, (N=7 study 2; N=8 study 3) • Sulfanegen, 50 mg/kg, N=7 • Sulfanegen, 100 mg/kg, N=7
(§2) TNFα ELISA kit (BMS607HS, invitrogen) was used. Brain tissue samples were assayed in duplicate. Briefly, the strips provided in the kit were washed with 400 μL wash buffer (lx) twice. 50 μL of brain homogenates or standards were added to 50 μL sample diluent (PBS) in each well. […] The samples were read at 450 nm. Quantification of TNFα in each well was conducted using the standard curve and was normalized to the weight of brain tissue.

[1] = Oral bioavailability: plasma levels after i.v. and p.o. dosing (LC-MS/MS); format: in vivo; settings: mouse
Description: (§3) To ascertain the distribution of sulfanegen to the brain, plasma and brain samples were harvested from intraperitoneally treated animal groups and analyzed via LC-MS/MS. A saline solution of sulfanegen was injected into the mouse peritoneum at a dose of 50 mg/kg. Specifically, samples were collected at 0.25, 0.5, 1, 2, and 4 h after the drug administration. […] Samples were immediately centrifuged at 3000 rpm for 10 min at 4° C., and the separated top plasma layer was transferred into a new tube. Blood samples were stored at −80° C. until LC-MS/MS analysis. For brain samples, brain tissue was extracted from the animal and washed with copious volumes of ice-cold D-PBS for removal of blood from the sample. The brain samples were homogenized by adding 1:5 (w/v) of ice-cold D-PBS into the tube and using a mechanical homogenizer on them. Homogenized brain samples were stored at −80° C.
Similar experimental design was used for determination of oral bioavailability of sulfanegen (Table 2). Plasma samples were collected after intravenous and oral administration of the compound and concentration of sulfanegen in these samples was determined using LC-MS/MS analysis.

SH-SY-5Y cells = assay: In vitro amyloid toxicity protection assay (CCK-8); format: cell-based
Description: SH-SY-5Y cells were seeded at a density of 20000/well in a 96-well plate and incubated overnight at 37° C. Following day, cells were treated with media according to their respective treatment group in triplicate. Vehicle-only treated cells are used as control groups. […] On day 3, Cells were incubated with media containing CCK-8 (<10%). After 3 hours of incubation, the absorbance is measured at 450 nm (reference wavelength 600 nm) using Me5 plate reader (Spectramax). The final volume in a well is kept at 100 μL CCK-8 (CK04, Dojindo labs) in this assay.

[2] = test system: i.c.v Aβ1-42 injected nontransgenic mice; assay: T-maze spontaneous alternation in i.c.v Aβ1-42 injected mice; format: in vivo, C57/BL6 mice
Description: as §1
Spontaneous alternation in a T-maze was used to assess working memory abilities, based on the innate tendency of mice to alternate their choice of a goal arm based on their recall of the initial choice. The T-maze used was made of black plexiglass as per dimensions stated in Nat Protocol, 2006 [PMID: 17406205, www.nature.com/articles/nprot.2006.2]. Mice were placed in the start arm with the central divider in place so that when entering either of the goal arms the mice were not able to see the other one. The mice were allowed to move freely in the whole hall, and then, after being confined to the start arm for 30 seconds, the animal was allowed to move freely for a total of 15 arm entrees. […] The alternation percentage was calculated by dividing the number of times the animal entered alternating arms by 14 (free-choice trials). […] Ratio of right and left arm entries was calculated to determine spatial preference of mice in different treatment groups. The data were analyzed using repeated measures analysis of variance (ANOVA) using Dunnett test.

APP/PS1 transgenic mice = assay: T-maze cognitive assessment in APP/PS1 transgenic mice; format: in vivo; settings: 75 mg/kg i.p. for 12 weeks; 7 and 12 month cohorts
From the text: Spontaneous alternation in a T-maze was used to assess working memory abilities, based on the innate tendency of mice to alternate their choice of a goal arm based on their recall of the initial choice. The T-maze used was made of black plexiglass as per dimensions stated in Nat Protocol, 2006 [PMID: 17406205, www.nature.com/articles/nprot.2006.2]. Mice were placed in the start arm with the central divider in place so that when entering either of the goal arms the mice were not able to see the other one. The mice were allowed to move freely in the whole hall, and then, after being confined to the start arm for 30 seconds, the animal was allowed to move freely for a total of 15 arm entrees. […] The alternation percentage was calculated by dividing the number of times the animal entered alternating arms by 14 (free-choice trials). An arm entry is defined as the animal's tail tip entering the arm and repetitive arm entries as an animal re-entering the same arm three times in a row (e.g., 5 sequential entries into the same arm is 3 repetitive entries). Ratio of right and left arm entries was calculated to determine spatial preference of mice in different treatment groups. The data were analyzed using repeated measures analysis of variance (ANOVA) using Dunnett test. […]

GSH = assay: Brain glutathione (GSH) and GSSG level, i.c.v Abeta mouse model; format: in vivo, C57/BL6 mice
Description: as §1
The brain GSH and GSSG level were measured with Glutathione assay kit (Cayman Chemical, Ann Arbor, MI) using the i.c.v Abeta mouse model (see Example 1). A total of 50 μl of sample was added to each well, and 150 μl the assay cocktail (MES buffer, reconstituted cofactor mixture, enzyme mixture, water, and DTNB) were added to the wells. The absorbance was measured at 414 nm using Spectra Max M5 microplate reader. Assay range was calculated under the standard curve (0-16 μM GSH or 0-8 μM GSSG). Results were expressed as nmol/mg protein and ratio of GSH/GSSG. Total GSH levels were higher in sulfanegen treated groups at both doses 50 mg/Kg and 100 mg/Kg. […] Reduced GSH levels were slightly lower in […] but not statistically significant.
The brain tissue for biochemical analysis was rapidly homogenized in these buffers 1) TBS (20 mM Tris-HCl and 150 mM NaCl) buffer with protease inhibitors and 5 M Guanidine-HCl in 50 mM Tris-HCl buffer for Aβ1-42 ELISA assay (FIG. 11, see Example 11 below), 2) 50 mM IVIES buffer for GSH (FIG. 8C, see Example 5) and Protein Carbonyl assay (FIG. 8B, see Example 6), 3) RIPA buffer with protease inhibitors for TBARS assay (FIG. 8A, see Example 7). […]

protein carbonyls = assay: Protein carbonyl assay, i.c.v Abeta mouse model; format: in vivo, C57/BL6 mice
Description: as §1
The protein carbonyl content is used as a marker of protein oxidation in the i.c.v Abeta mouse model (see Example 1). The amount of protein-hydrozone produced is quantified spectrophotometrically by Protein Carbonyl Colorimetric assay kit (Cayman Chemical, Ann Arbor, MI). 100 μl of sample was transferred into two tubes, one containing 400 μl of DNPH and the other tube containing 400 μl of 2.5 M HCl. […] The absorbance was measured at 385 nm using Spectra Max M5 microplate reader. […]

[3] = test system: TBARS (lipid peroxidation); assay: Lipid peroxidation (TBARS) assay, i.c.v Abeta mouse model; format: in vivo, C57/BL6 mice; settings: 50 and 100 mg/Kg
Description: as §1
The extent of lipid peroxidation, in the i.c.v Abeta mouse model (see Example 1), was correlated to the levels of thiobarbituric (TBA) acid-reactive entities (TBARS assay). Homogenized brains were exposed to TBA-trichloroacetic acid (TCA)-chloridic acid reagent (HCl; 0.37% TBA, 0.25 N HCl, and 15% TCA) (1:1:1, 2 mL) and incubated for 15 minutes at […]. […] Total protein was determined through the BCA protein assay. […]

[4] = Brain permeability: brain and plasma levels after i.p. dosing (LC-MS/MS); format: in vivo, mouse; settings: 50 mg/kg i.p.
Description: as §3

IL-6 = IL-6 ELISA of brain tissue, i.c.v Aβ1-42 mice; format: in vivo, C57/BL6 mice
Description: as §1
as §2, with “IL-6” for “TNFα”, “(BMS603HS,” for “kit (BMS607HS,”, “nm (reference wavelength 620 nm).” for “nm.”

[5] = Tolerability in i.c.v Aβ1-42 injected nontransgenic mice; format: in vivo, C57/BL6 mice
Description: as §1

O=C(O)C1(O)CSC(O)(C(=O)O)CS1 (stereo not drawn) [sulfanegen]
H2S release (H2S; 500 μM as compared to 250 μM, 6 h): decrease
H2S release (H2S; up to 250 μM at 6 h, vs vehicle control): dose-dependent increase
brain TNFα level (TNFα): significant decrease; also recorded: significant difference
AUC ([1]; iv, 10 mg/kg, read-out: AUC, plasma, i.v.): 32.6 µM·h
bioavailability ([1]; oral, p.o. 50 mg/kg vs i.v. 10 mg/kg): 15.1%
AUC ([1]; po, 50 mg/kg, read-out: AUC, plasma, p.o.): 24.6 µM·h
protection against Aβ1-42 reduction in cell viability (SH-SY-5Y cells; SH-SY-5Y, 20 μM Aβ1-42, CCK-8): prevented; also recorded: high protective effect
cell growth (SH-SY-5Y cells; SH-SY-5Y, with 20 μM Aβ1-42): increase in cell growth, even above the control levels
dose above which protective effect appears saturated (SH-SY-5Y cells; no difference at higher 500 μM dose): above 350 μM
cognitive behavior / cognitive impairment by T-maze ([2]; 50 and 100 mg/kg i.p.): marked improvement; also recorded: prevented cognitive impairment
T-maze alternation and repetition behavior ([2]; 50 and 100 mg/kg i.p., 6 days after Aβ1-42 injection): significant improvement
spatial bias or anxiety-like behavior in T-maze ([2]; i.p. sulfanegen-treated mice): did not exhibit spatial bias or anxiety-like behavior
cognitive function (T-maze spontaneous alternation) (APP/PS1 transgenic mice): improved cognitive function
total GSH levels in brain (GSH; 50 mg/Kg and 100 mg/Kg): higher
reduced GSH levels in brain (GSH; 100 mg/Kg, compared to both vehicle and amyloid beta treatment): significantly higher
GSH level as oxidative stress marker (legend of FIGS. 8A-8C) (GSH; 50 or 100 mg/Kg): significantly reduced
protein carbonyl levels in brain (protein carbonyls; 50 mg/kg): significantly reduced
protein carbonyl levels (legend of FIGS. 8A-8C) (protein carbonyls; 50 or 100 mg/Kg): significantly reduced
TBARS (lipid peroxidation) levels in brain [3]: significantly reduced
crossing of the blood brain barrier (BBB) [4]: able to cross the blood brain barrier
AUC, brain ([4]; samples 0.25-4 h): 51.495 µM·h
Kp ([4]; mouse, brain/plasma, intraperitoneal, read-out: B/P Ratio (Brain-Plasma ratio)): 0.751
AUC ([4]; mouse, plasma, ip, samples 0.25-4 h): 68.6 µM·h
brain IL-6 level (IL-6; 50 mg/kg i.p.): reduction of increased IL-6 levels; also recorded: significant difference
brain IL-6 level (IL-6; 100 mg/kg i.p.): Increase in IL-6
tolerability ([5]; 50 mg/kg i.p.): well tolerated
mice that died during the experiment ([5]; 100 mg/kg i.p.): Two mice (out of 7)
toxicity: liver and kidney enzymes ([5]; 100 mg/kg, total N=8/group): elevations in liver and kidney enzymes in 2 animals
body weights ([5]; 50 and 100 mg/kg i.p., compared to Aβ1-42-only control group): No marked decrease or increase in weights
other signs of distress ([5]; both tested doses (50 and 100 mg/kg i.p.)): No other signs of distress
